In US20260144769A1, “4-PHENYLBUTYRATE RESTORED GABA UPTAKE AND REDUCED SEIZURES IN SLC6A1 VARIANT-MEDIATED DISORDERS” (Vanderbilt University, priority 2022, published 2026):

How the values were obtained:
SLC6A1 gene expression = assay: RT-qPCR of SLC6A1 gene expression, mouse whole-brain tissue; assay type: in vivo; conditions: wild-type and SLC6A1^+/S295L mice; PBA for 7 days; whole-brain RNA
Excerpt: FIGS. 14A-B show RT-qPCR data from a cohort of nine wild-type mice (FIG. 14A) and seven SLC6A1^+/S295L mice (FIG. 14B). […] Total RNA was extracted from mouse whole-brain tissue.

[1] = tested on: wildtype GAT-1 + GAT-1 S295L; assay: 3H GABA uptake, HEK293T, mixture of wildtype and mutant cDNAs ("heterozygous"); assay type: cell-based, rat; conditions: wildtype:S295L cDNAs 1:1; PBA 2 mM, 24 hrs
Method: (§1) GABA uptake activity was measured by the high-throughput 3H radio-labeling GABA uptake on a liquid scintillator with QuantaSmart. […] HEK293T cells were transfected with the wildtype or the mutant GAT-1^YFP cDNAs alone for 48 hr. […] HEK293T cells were transfected with the wildtype GAT-1^YFP alone or in mixture of the wildtype or the mutant cDNAs for 48 hr. In the mixed condition, the ratio of the wildtype GAT-1 with pcDNA or the mutant cDNAs are 1:1 with the total cDNA amount of 0.5 μg. […] Both wt and the mutant were normalized to its own DMSO treated conditions. 966 stands for the wildtype treated with CI-966 (50 μM) while 711 stands for NNC-711 (35 μM). (N=4-7 different transfections. In FIG. 4A and FIG. 4B, *P<0.05, **P<0.01, ***p<0.001 vs. wt 0. In FIG. C and FIG. 4D, *P<0.05, **P<0.01, ***p<0.001 vs. its own DMSO treated. In FIG. 4C, ns stands for no significance. One-way analysis of variance (ANOVA) and Newman-Keuls test. Values were expressed as mean±S.E.M.
(§2) The plasmid cDNA encoding enhanced yellow fluorescent protein (EYFP)-tagged rat GAT-1 has been previously described. The coding region of rGAT-1 was inserted into pEYFP-C1 (Clontech, Palo Alto, CA). QuikChange Site-directed Mutagenesis kit was utilized to introduce the GAT-1 variants into a wildtype GAT-1 plasmid. The product was then amplified via polymerase chain reaction, transformed using DH5a competent cells, and plated. A clone was chosen and grown overnight. All the GAT-1 variants were confirmed by DNA sequencing. Both the wildtype and the variant cDNAs were prepared with Qiagen Maxiprep kit.
(§3) Human embryonic kidney cells were cultured as monolayers in 100 mm^2 dishes. Cells were cultured in Dulbecco's Modified Eagle's Medium supplemented with 10% FBS and 1% penicillin/streptomycin in 37° C. in 5% CO2/95% air. Cells were maintained in culture medium until appropriate confluency for experimentation.
(§4) Briefly, cells were cultured in […] dishes for 3 days before the GABA uptake experiment in DMEM with 10% fetal bovine serum and 1% penicillin/streptomycin. The cells were then transfected with equal amounts of the wildtype or the mutant GAT-1 cDNAs (1 μg) for each condition at 24 hrs or 48 hrs after plating. GABA uptake assay was carried out 48 hrs after transfection. The cells were incubated with preincubation solution for 15 min and then incubated with preincubation solution containing 1 μci/mL 3H GABA and 10 μM unlabeled GABA for 30 min at room temperature. After washing, the cells were lysed with 0.25 N NaOH for 1 hr. Glacial acetic acid was added, and lysates were then determined on a liquid scintillator with QuantaSmart. The flux of GABA (pmol/μg/min) was averaged with at least triplets for each condition at each transfection. The average counting was taken as n=1. The untransfected condition was taken as a baseline that was subtracted from both the wildtype and the mutant conditions. The pmol/μg/min in the mutant was then normalized to the wildtype from each experiment, which was arbitrarily taken as 100%. The protocols for GABA reuptake assay in cultured mouse astrocytes, neuron or iPSC derived cells were modified from the GABA uptake protocol on HEK 293T cells. GAT-1 inhibitors CL-966 and NNC-711 were applied each time to make sure the radioactive counts were specific.
(§5) The working solution was stored at 4° C.

[2] = tested on: wildtype GAT-1 + GAT-1 D410E; assay: as above; assay type: cell-based, rat; conditions: wildtype:D410E cDNAs 1:1; PBA 2 mM, 24 hrs
Method: as §1, §2, §3, §4, §5

[3] = tested on: wildtype GAT-1 + GAT-1 A288V; assay: as above; assay type: cell-based, rat; conditions: wildtype:A288V cDNAs 1:1; PBA 2 mM, 24 hrs
Method: as §1, §2, §3, §4, §5

SLC6A1^+/S295L mice = assay: Video-monitoring synchronized EEG recordings, seizure activity; assay type: in vivo, mouse
Method: as §5
The surgery to implant the EEG head mount and the video-monitoring synchronized EEG recordings were conducted as described by Kristensen et al., Pharmcol. Rev. 63 (3): 585-640 (2011) and Cai et al., Exp. Neurol. 3:112973 (2019).
For recordings, the sampling rate was set at 400 Hz with a pre-amplifier gain of […]. […] EEG recordings were scored blindly by a skilled scorer using the Sirenia Seizure Pro software. A power analysis was performed using the theta frequency band of 5-7 Hz. The 5-7 Hz SWDs band was chosen because it is the mouse correlate of 2-4 Hz SWDs in humans. An average power was calculated using baseline recordings and applied to seizure analysis for treatment recordings. Seizures identified by the software were confirmed using video recordings of the period. The Racine scale was used for seizure identification (Stage 1: mouth/facial movements; Stage 2: head nodding; Stage 3: forelimb clonus; Stage 4: rearing; Stage 5: rearing and falling). The identified SWDs were then confirmed with video monitoring and compared across treated and non-treated recordings. The total seizure events over 48 hrs of EEG recordings were reported.
First, ˜2-month-old mice were implanted with EEG head mounts. After 5-7 days recovery, the mice were treated with a normal saline vehicle for 7 days, and then subject to video monitored EEG recording for 48 hrs. […]

**Q.** For `O=C(O)CCCc1ccccc1` [PBA, 4-phenylbutyric acid], which “SLC6A1 gene expression, treated vs. untreated mice” value (SLC6A1 gene expression) is on record?
**A.** The value was “no significant difference”.

**Q.** And the “GABA uptake normalized to its own DMSO treated condition” value (“GABA uptake normalized” for short) [1]?
**A.** The value was 1.318±0.062.

**Q.** What about the “GABA uptake normalized” value [2] of the same compound?
**A.** The value was 1.17±0.035.

**Q.** And the “GABA uptake normalized” value [3]?
**A.** Its value is 1.248±0.053.

**Q.** What about the “total number of 5-7 Hz SWDs over 48 hrs EEG recordings” value (SLC6A1^+/S295L mice; PBA 100 mg/kg, ip, single dose daily, 7 days (vehicle 127.7±34.08)) of the same compound?
**A.** The value was 33.3±13.02.

**Q.** And the “reduction of seizure burden” value (SLC6A1^+/S295L mice; PBA treatment alone, 1 week)?
**A.** The value was roughly 76%.
